Tested on: patients with advanced solid tumors
Assay: Phase 1 trial: adverse events (CTCAE), DLT and MTD
Assay type: in vivo, human
Method: The phase 1 trial was a two-part, multicenter, open-label, nonrandomized study to evaluate the safety and preliminary efficacy of HA121-28.
Safety, tolerability, and PK of HA121-28 was assessed in dose-escalation part. The single-patient accelerated titration was carried out at 25 mg and 50 mg; then, the dose escalation proceeded according to a “3 + 3” design in dose range of 100 to 800 mg. Escalation to a higher dose level was considered by the satisfactory review of safety results from the previous lower dose during the first cycle.
The dose-expansion part aims to further access the safety and efficacy of HA121-28 at the selected doses based on data from the dose-escalation part. The RP2D was determined by investigators in view of a thorough review of safety, PK, and efficacy results.
In phase 1 trial, during the dose-escalation part, patients first administered HA121-28 in a single ascending dose under the fasted state, then followed up for seven days. Then, patients received ascending doses of HA121-28 (q.d.) on a 21-day on and 7-day off treatment scheme for a 28-day cycle. For patients deemed beneficial from the treatment by investigators, treatment could remain until disease progression, or they discontinued from the study. In the dose-expansion part of phase 1, as well as phase 2, patients received HA121-28 (q.d.) at the selected doses on a 21-day on and 7-day off treatment scheme until disease progression, or they discontinued from the study.
Treatment-emergent adverse events (TEAEs) were documented during the entire study period. The predefined adverse event of special interest (AESI) was ≥ grade 3 prolonged QT interval. Tumor imaging was performed using contrast-enhanced computed tomography or magnetic resonance imaging at screening, Day 28 of the first cycle, then approximately every eight weeks till the end of the study for phase 1; in phase 2, imaging was scheduled at screening, and every eight weeks during the first 40 weeks, followed by every 12 weeks for the rest of the study period. RECIST 1.1 was used by the independent review committee or investigators for assessment of tumor response. After the original assessment, a repeated assessment was required around four weeks later to confirm a complete or partial response.
The primary endpoints of phase 1 were to investigate the MTD, dose-limiting toxicities, and the incidence and severity of TEAEs. Each TEAE was graded according to the Common Terminology Criteria for Adverse Events (CTCAE, version 5.0) and coded by Medical Dictionary for Regulatory Activities (MedDRA, version 21.0). The secondary endpoints included calculating PK parameters, assessing the ORR and DCR at the recommended dose by investigators as per RECIST 1.1. The exploratory endpoint was PFS.
If grade 2 or higher toxicity related to the study drug occurs in Groups 1 and 2 (as determined by the investigator), dose escalation will proceed using a 3+3 design starting from that dose level. If no DLT is observed at the 800 mg/d dose level after dose escalation, a meeting of investigators will be convened to decide whether to proceed with further dose escalation based on the available PK data, safety, and tolerability information.
5. Definition of DLT and MTD
The following events related to the study drug (including those that are definitely related, highly likely to be related, and possibly related):
(1) Grade 4 hematologic toxicity or grade 3 neutropenia accompanied by a fever of 38.5℃ or higher, or grade 3 thrombocytopenia accompanied by severe bleeding.
(2) Patients who discontinued the medication for more than 7 days due to unresolved toxicity reactions or who discontinued the medication more than twice due to toxicity […]
(3) In the context of supportive treatment, diarrhea of grade 2 lasting more than 7 days, or grade 3 diarrhea lasting more than 3 days.

Compound: COc1cc2c(Nc3ccc(Br)cc3F)ncnc2cc1OCCCCN(C)C.Cl.Cl [HA121-28, N-(4-bromo-2-fluorophenyl)-7-(4-(dimethylamino)butoxy)-6-methoxy quinazolin-4-amine dihydrochloride]
- incidence of ≥ grade-3 TEAEs (450 mg/day): 36.7%
- incidence of ≥ grade-3 TEAEs (600 mg/day): 68.8%
- patients with dose-limiting toxicities (800 mg (q.d.), grade-3 decreased appetite, grade-3 prolonged QT interval): two
- Serious TEAE: ALT increased (Phase 1, 300 mg (N=4)): 0 No. (%)
- Serious TEAE: AST increased (Phase 1, 300 mg (N=4)): 0 No. (%)
- Serious TEAE: Abdominal Pain (Phase 1, 300 mg (N=4)): 0 No. (%)
- Serious TEAE: Abdominal distension (Phase 1, 300 mg (N=4)): 0 No. (%)
- Serious TEAE: Acute cholecystitis (Phase 1, 300 mg (N=4)): 0 No. (%)
- Serious TEAE: Acute pancreatitis (Phase 1, 300 mg (N=4)): 0 No. (%)
- Serious TEAE: Anal abscess (Phase 1, 300 mg (N=4)): 0 No. (%)
- Serious TEAE: Any (Phase 1, 300 mg (N=4)): 1 (25.0) No. (%)
- Serious TEAE: Aortic intramural hematoma (Phase 1, 300 mg (N=4)): 1 (25.0) No. (%)
- Serious TEAE: Arrhythmia (Phase 1, 300 mg (N=4)): 0 No. (%)
- Serious TEAE: Blood bilirubin increased (Phase 1, 300 mg (N=4)): 0 No. (%)
- Serious TEAE: Blood creatinine increased (Phase 1, 300 mg (N=4)): 0 No. (%)
- Serious TEAE: COVID-19 (Phase 1, 300 mg (N=4)): 0 No. (%)
- Serious TEAE: Cardiac tamponade (Phase 1, 300 mg (N=4)): 0 No. (%)
- Serious TEAE: Coronary artery atherosclerosis (Phase 1, 300 mg (N=4)): 0 No. (%)
- Serious TEAE: Death (Phase 1, 300 mg (N=4)): 0 No. (%)
- Serious TEAE: Diarrhea (Phase 1, 300 mg (N=4)): 0 No. (%)
- Serious TEAE: Drug eruption (Phase 1, 300 mg (N=4)): 0 No. (%)
- Serious TEAE: Dyspnea (Phase 1, 300 mg (N=4)): 0 No. (%)
- Serious TEAE: Embolism (Phase 1, 300 mg (N=4)): 0 No. (%)
- Serious TEAE: Erythema multiforme (Phase 1, 300 mg (N=4)): 0 No. (%)
- Serious TEAE: Headache (Phase 1, 300 mg (N=4)): 0 No. (%)
- Serious TEAE: Hemoptysis (Phase 1, 300 mg (N=4)): 0 No. (%)
- Serious TEAE: Hydronephrosis (Phase 1, 300 mg (N=4)): 0 No. (%)
- Serious TEAE: Hypertension (Phase 1, 300 mg (N=4)): 0 No. (%)
- Serious TEAE: Hypoalbuminemia (Phase 1, 300 mg (N=4)): 0 No. (%)
- Serious TEAE: Intestinal obstruction (Phase 1, 300 mg (N=4)): 0 No. (%)
- Serious TEAE: Intra-abdominal fluid collection (Phase 1, 300 mg (N=4)): 0 No. (%)
- Serious TEAE: Intracranial tumor hemorrhage (Phase 1, 300 mg (N=4)): 0 No. (%)
- Serious TEAE: Liver injury (Phase 1, 300 mg (N=4)): 0 No. (%)
- Serious TEAE: Lung adenocarcinoma (Phase 1, 300 mg (N=4)): 0 No. (%)
- Serious TEAE: Malignant neoplasm progression (Phase 1, 300 mg (N=4)): 0 No. (%)
- Serious TEAE: Multiple organ dysfunction syndrome (Phase 1, 300 mg (N=4)): 0 No. (%)
- Serious TEAE: Nausea (Phase 1, 300 mg (N=4)): 0 No. (%)
- Serious TEAE: Nephrolithiasis (Phase 1, 300 mg (N=4)): 0 No. (%)
- Serious TEAE: Platelet counts decreased (Phase 1, 300 mg (N=4)): 0 No. (%)
- Serious TEAE: Pleural effusion (Phase 1, 300 mg (N=4)): 0 No. (%)
- Serious TEAE: Pneumonia (Phase 1, 300 mg (N=4)): 0 No. (%)
- Serious TEAE: Pneumonitis (Phase 1, 300 mg (N=4)): 0 No. (%)
- Serious TEAE: Prolonged QT interval (Phase 1, 300 mg (N=4)): 0 No. (%)
- Serious TEAE: Pulmonary embolism (Phase 1, 300 mg (N=4)): 0 No. (%)
- Serious TEAE: Pyrexia (Phase 1, 300 mg (N=4)): 0 No. (%)
- Serious TEAE: Rash (Phase 1, 300 mg (N=4)): 0 No. (%)
- Serious TEAE: Rectal hemorrhage (Phase 1, 300 mg (N=4)): 0 No. (%)
- Serious TEAE: Respiratory failure (Phase 1, 300 mg (N=4)): 0 No. (%)
- Serious TEAE: Seizure (Phase 1, 300 mg (N=4)): 0 No. (%)
- Serious TEAE: Septic shock (Phase 1, 300 mg (N=4)): 0 No. (%)
- Serious TEAE: Sudden cardiac arrest (Phase 1, 300 mg (N=4)): 0 No. (%)
- Serious TEAE: Sudden death (Phase 1, 300 mg (N=4)): 0 No. (%)
- Serious TEAE: Upper respiratory tract infection (Phase 1, 300 mg (N=4)): 0 No. (%)
- Serious TEAE: Ventricular tachycardia (Phase 1, 300 mg (N=4)): 0 No. (%)
- Serious TEAE: Vomiting (Phase 1, 300 mg (N=4)): 0 No. (%)
- Serious TEAE: Weight loss (Phase 1, 300 mg (N=4)): 0 No. (%)
- Serious TRAE: ALT increased (Phase 1, 300 mg (N=4)): 0 No. (%)
- Serious TRAE: AST increased (Phase 1, 300 mg (N=4)): 0 No. (%)
- Serious TRAE: Abdominal Pain (Phase 1, 300 mg (N=4)): 0 No. (%)
- Serious TRAE: Abdominal distension (Phase 1, 300 mg (N=4)): 0 No. (%)
- Serious TRAE: Acute cholecystitis (Phase 1, 300 mg (N=4)): 0 No. (%)
- Serious TRAE: Acute pancreatitis (Phase 1, 300 mg (N=4)): 0 No. (%)
- Serious TRAE: Anal abscess (Phase 1, 300 mg (N=4)): 0 No. (%)
- Serious TRAE: Any (Phase 1, 300 mg (N=4)): 0 No. (%)
- Serious TRAE: Aortic intramural hematoma (Phase 1, 300 mg (N=4)): 0 No. (%)
- Serious TRAE: Arrhythmia (Phase 1, 300 mg (N=4)): 0 No. (%)
- Serious TRAE: Blood bilirubin increased (Phase 1, 300 mg (N=4)): 0 No. (%)
- Serious TRAE: Blood creatinine increased (Phase 1, 300 mg (N=4)): 0 No. (%)
- Serious TRAE: COVID-19 (Phase 1, 300 mg (N=4)): 0 No. (%)
- Serious TRAE: Cardiac tamponade (Phase 1, 300 mg (N=4)): 0 No. (%)
- Serious TRAE: Coronary artery atherosclerosis (Phase 1, 300 mg (N=4)): 0 No. (%)
- Serious TRAE: Death (Phase 1, 300 mg (N=4)): 0 No. (%)
- Serious TRAE: Diarrhea (Phase 1, 300 mg (N=4)): 0 No. (%)
- Serious TRAE: Drug eruption (Phase 1, 300 mg (N=4)): 0 No. (%)
- Serious TRAE: Dyspnea (Phase 1, 300 mg (N=4)): 0 No. (%)
- Serious TRAE: Embolism (Phase 1, 300 mg (N=4)): 0 No. (%)
- Serious TRAE: Erythema multiforme (Phase 1, 300 mg (N=4)): 0 No. (%)
- Serious TRAE: Headache (Phase 1, 300 mg (N=4)): 0 No. (%)
- Serious TRAE: Hemoptysis (Phase 1, 300 mg (N=4)): 0 No. (%)
- Serious TRAE: Hydronephrosis (Phase 1, 300 mg (N=4)): 0 No. (%)
- Serious TRAE: Hypertension (Phase 1, 300 mg (N=4)): 0 No. (%)
- Serious TRAE: Hypoalbuminemia (Phase 1, 300 mg (N=4)): 0 No. (%)
- Serious TRAE: Intestinal obstruction (Phase 1, 300 mg (N=4)): 0 No. (%)
- Serious TRAE: Intra-abdominal fluid collection (Phase 1, 300 mg (N=4)): 0 No. (%)
- Serious TRAE: Intracranial tumor hemorrhage (Phase 1, 300 mg (N=4)): 0 No. (%)
- Serious TRAE: Liver injury (Phase 1, 300 mg (N=4)): 0 No. (%)
- Serious TRAE: Lung adenocarcinoma (Phase 1, 300 mg (N=4)): 0 No. (%)
- Serious TRAE: Malignant neoplasm progression (Phase 1, 300 mg (N=4)): 0 No. (%)
- Serious TRAE: Multiple organ dysfunction syndrome (Phase 1, 300 mg (N=4)): 0 No. (%)
- Serious TRAE: Nausea (Phase 1, 300 mg (N=4)): 0 No. (%)
- Serious TRAE: Nephrolithiasis (Phase 1, 300 mg (N=4)): 0 No. (%)
- Serious TRAE: Platelet counts decreased (Phase 1, 300 mg (N=4)): 0 No. (%)
- Serious TRAE: Pleural effusion (Phase 1, 300 mg (N=4)): 0 No. (%)
- Serious TRAE: Pneumonia (Phase 1, 300 mg (N=4)): 0 No. (%)
- Serious TRAE: Pneumonitis (Phase 1, 300 mg (N=4)): 0 No. (%)
- Serious TRAE: Prolonged QT interval (Phase 1, 300 mg (N=4)): 0 No. (%)
- Serious TRAE: Pulmonary embolism (Phase 1, 300 mg (N=4)): 0 No. (%)
- Serious TRAE: Pyrexia (Phase 1, 300 mg (N=4)): 0 No. (%)
- Serious TRAE: Rash (Phase 1, 300 mg (N=4)): 0 No. (%)
- Serious TRAE: Rectal hemorrhage (Phase 1, 300 mg (N=4)): 0 No. (%)
- Serious TRAE: Respiratory failure (Phase 1, 300 mg (N=4)): 0 No. (%)
- Serious TRAE: Seizure (Phase 1, 300 mg (N=4)): 0 No. (%)
- Serious TRAE: Septic shock (Phase 1, 300 mg (N=4)): 0 No. (%)
- Serious TRAE: Sudden cardiac arrest (Phase 1, 300 mg (N=4)): 0 No. (%)
- Serious TRAE: Sudden death (Phase 1, 300 mg (N=4)): 0 No. (%)
- Serious TRAE: Upper respiratory tract infection (Phase 1, 300 mg (N=4)): 0 No. (%)
- Serious TRAE: Ventricular tachycardia (Phase 1, 300 mg (N=4)): 0 No. (%)
- Serious TRAE: Vomiting (Phase 1, 300 mg (N=4)): 0 No. (%)
- Serious TRAE: Weight loss (Phase 1, 300 mg (N=4)): 0 No. (%)
- Serious TEAE: ALT increased (Phase 1, 450 mg (N=79)): 0 No. (%)
- Serious TEAE: AST increased (Phase 1, 450 mg (N=79)): 0 No. (%)
- Serious TEAE: Abdominal Pain (Phase 1, 450 mg (N=79)): 0 No. (%)
- Serious TEAE: Abdominal distension (Phase 1, 450 mg (N=79)): 0 No. (%)
- Serious TEAE: Acute cholecystitis (Phase 1, 450 mg (N=79)): 1 (1.3) No. (%)
